Tests used:
[1] = system: D. immitis L3-L4 larval Wolbachia in NSG mice; test: In vivo D. immitis larvae mouse assay (Example 3A); settings: for D. immitis L4 Efficacy (median % reduction Wolbachia): larvae retrieved 2 weeks after infection
D. immitis L4 Wolbachia = test: In vitro D. immitis L4 larvae assay (Wolbachia wsp copy number by qPCR); assay type: cell-based; settings: for D. immitis L4 Efficacy (median % reduction Wolbachia): six-day continuous exposure in vitro
D. immitis mf Wolbachia = test: In vitro D. immitis microfilariae assay (Wolbachia wsp copy number by qPCR); assay type: cell-based; settings: six-day continuous exposure in vitro
[2] = system: D. immitis L3-L4 larval Wolbachia in NSG mice; test: In vivo D. immitis larvae mouse assay (Example 3B); settings: for n larvae depleted ≥50% (number/total) / n larvae depleted ≥50% (percentage of larvae): oral 200 mpk bid x 1; for D. immitis L4 Efficacy (median % reduction Wolbachia): oral 200 mpk bid x 1 (single day dosing), larvae retrieved 2 weeks after infection

## C[C@H]1c2cccc(O)c2C(=O)C2=C(O)[C@]3(O)C(=O)C(C(N)=O)=C(O)[C@@H](N(C)C)[C@@H]3[C@@H](O)[C@@H]21 [Doxycycline, doxycycline, reference compound]
[1]; oral 50 mpk qd x 7
  n larvae depleted ≥80% (number/total): 4/9
  n larvae depleted ≥80% (percentage of larvae): (44.4%)
[1]; oral 50 mpk qd x 7 (days 1-7 post-infection)
  D. immitis L4 Efficacy (median % reduction Wolbachia): 69.6%
D. immitis L4 Wolbachia; 5000 nM
  D. immitis L4 Efficacy (median % reduction Wolbachia): 65.9%
D. immitis mf Wolbachia; 50 nM
  D. immitis mf Efficacy (median % reduction Wolbachia): 10.0%
D. immitis mf Wolbachia; 5000 nM
  D. immitis mf Efficacy (median % reduction Wolbachia): 58.8%

## CC1(C)CCN(c2nc(NCc3cccnc3C(F)(F)F)c3cccnc3n2)CC1 [Compound B, 2-(4,4-dimethylpiperidin-1-yl)-N-((2-(trifluoromethyl)pyridin-3-yl)methyl)pyrido[2,3-d]pyrimidin-4-amine]
D. immitis L4 Wolbachia; 1 nM
  D. immitis L4 Efficacy (median % reduction Wolbachia): 45.4%
D. immitis L4 Wolbachia; 10 nM
  D. immitis L4 Efficacy (median % reduction Wolbachia): 50.7%
D. immitis L4 Wolbachia; 50 nM
  D. immitis L4 Efficacy (median % reduction Wolbachia): 57.4%
D. immitis L4 Wolbachia; doses between 50-10 nM, in vitro
  Wolbachia depletion in D. immitis L4: > 50%
D. immitis mf Wolbachia; 0.5 nM
  D. immitis mf Efficacy (median % reduction Wolbachia): 63.9%
D. immitis mf Wolbachia; 50 nM
  D. immitis mf Efficacy (median % reduction Wolbachia): 53.6%

## FC1(F)CCN(c2nc(NCc3ccccc3C(F)(F)F)c3cccnc3n2)CC1 [Compound C, 2-(4,4-difluoropiperidin-1-yl)-N-(2-(trifluoromethyl)benzyl)pyrido[2,3-d]pyrimidin-4-amine]
[2]
  n larvae depleted ≥50% (number/total): 2/3
  n larvae depleted ≥50% (percentage of larvae): (67%)
  D. immitis L4 Efficacy (median % reduction Wolbachia): 61.7%

## C[C@H]1COCCN1c1nc(NCc2cccnc2C(F)(F)F)c2cccnc2n1 [Compound A, (S)-2-(3-methylmorpholino)-N-((2-(trifluoromethyl)pyridin-3-yl)methyl)pyrido[2,3-d]pyrimidin-4-amine]
[1]; oral 200 mpk bid x 2
  n larvae depleted ≥80% (number/total): 10/11
  n larvae depleted ≥80% (percentage of larvae): (90.9%)
[1]; oral 200 mpk bid x 2 (days 1-2), 200 mg/kg
  D. immitis L4 Efficacy (median % reduction Wolbachia): 89.7%
[2]
  n larvae depleted ≥50% (number/total): 4/5
  n larvae depleted ≥50% (percentage of larvae): (80%)
[2]; 200 mg/kg
  D. immitis L4 Efficacy (median % reduction Wolbachia): 52.1%
D. immitis mf Wolbachia; 50 nM
  D. immitis mf Efficacy (median % reduction Wolbachia): 64.1%
D. immitis mf Wolbachia; 200 nM
  D. immitis mf Efficacy (median % reduction Wolbachia): 88.8%
D. immitis mf Wolbachia; 5000 nM
  D. immitis mf Efficacy (median % reduction Wolbachia): 96.0%

## FC(F)(F)OC1CCN(c2nc(NCc3cccnc3C(F)(F)F)c3cccnc3n2)CC1 [Compound D, 2-(4-(trifluoromethoxy)piperidin-1-yl)-N-((2-(trifluoromethyl)pyridin-3-yl)methyl)pyrido[2,3-d]pyrimidin-4-amine]
[2]
  n larvae depleted ≥50% (number/total): 8/12
  n larvae depleted ≥50% (percentage of larvae): (67%)
  D. immitis L4 Efficacy (median % reduction Wolbachia): 53.6%
